Source: patent publication US20240383898A1, “PYRIDO RING COMPOUND, PREPARATION METHOD THEREFOR, INTERMEDIATE, COMPOSITION, AND APPLICATION” (YIYOU BIOTECH (SHANGHAI) CO., LTD, priority 2021, published 2024)
pIC50: −log10 of the molar value.

How the values were obtained:
[1] = biological target: T1, JAK1 (Homo sapiens, UniProt P23458); experiment: In vitro activity test of JAK1 kinase (Caliper EZ Reader conversion assay); format: biochemical; conditions: enzyme activity, 10 concentrations from 1000 nM, 3-fold dilution
T1 construct: purchased Carna 08-114
Outline: (§1)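 JAK1 or JAK2 pre-incubated with compound (top 1000 nM, 3-fold, 10 points, duplicate) for 10 min at room temperature, then ATP plus substrate added. Substrate conversion read by mobility-shift on Caliper EZ Reader after stop solution. Inhibition normalized to no-enzyme and DMSO controls; IC50 from variable-slope four-parameter fit.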

[2] = biological target: T2, JAK2 (Homo sapiens, UniProt O60674); experiment: In vitro activity test of JAK2 kinase (Caliper EZ Reader conversion assay); format: biochemical; conditions: enzyme activity, 10 concentrations from 1000 nM, 3-fold dilution
T2 construct: purchased Carna 08-045
Outline: as §1

T1 sequence (P23458 whole entry, species assumed): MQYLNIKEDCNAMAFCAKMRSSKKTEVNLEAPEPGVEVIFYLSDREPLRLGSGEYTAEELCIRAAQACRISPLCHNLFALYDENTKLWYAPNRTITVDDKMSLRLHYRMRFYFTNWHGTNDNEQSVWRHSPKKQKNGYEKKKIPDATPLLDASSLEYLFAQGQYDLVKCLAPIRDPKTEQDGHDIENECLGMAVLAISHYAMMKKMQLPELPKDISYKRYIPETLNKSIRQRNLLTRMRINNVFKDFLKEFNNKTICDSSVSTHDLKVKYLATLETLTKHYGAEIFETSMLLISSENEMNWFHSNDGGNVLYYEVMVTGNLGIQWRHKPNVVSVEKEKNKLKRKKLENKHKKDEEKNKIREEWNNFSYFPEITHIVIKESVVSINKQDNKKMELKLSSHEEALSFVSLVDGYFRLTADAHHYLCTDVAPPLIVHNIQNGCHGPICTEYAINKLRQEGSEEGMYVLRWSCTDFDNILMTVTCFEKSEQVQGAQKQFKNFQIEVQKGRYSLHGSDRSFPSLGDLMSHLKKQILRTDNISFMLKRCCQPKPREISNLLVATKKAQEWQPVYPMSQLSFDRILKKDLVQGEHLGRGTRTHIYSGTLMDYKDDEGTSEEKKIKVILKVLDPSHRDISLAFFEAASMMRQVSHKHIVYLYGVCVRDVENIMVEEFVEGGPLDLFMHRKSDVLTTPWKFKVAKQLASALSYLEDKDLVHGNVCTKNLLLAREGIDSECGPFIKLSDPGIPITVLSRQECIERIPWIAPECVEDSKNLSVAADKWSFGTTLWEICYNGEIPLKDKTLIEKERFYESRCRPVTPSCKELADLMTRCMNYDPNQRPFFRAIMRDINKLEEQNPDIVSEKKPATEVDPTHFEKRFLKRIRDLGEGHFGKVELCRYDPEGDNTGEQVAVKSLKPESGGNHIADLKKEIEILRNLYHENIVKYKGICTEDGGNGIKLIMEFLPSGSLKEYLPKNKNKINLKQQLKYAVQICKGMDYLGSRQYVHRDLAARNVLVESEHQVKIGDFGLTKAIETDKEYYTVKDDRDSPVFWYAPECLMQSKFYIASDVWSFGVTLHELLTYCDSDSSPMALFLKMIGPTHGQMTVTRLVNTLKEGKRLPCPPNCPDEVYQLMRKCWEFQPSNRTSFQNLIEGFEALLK
T2 sequence (O60674 whole entry, species assumed): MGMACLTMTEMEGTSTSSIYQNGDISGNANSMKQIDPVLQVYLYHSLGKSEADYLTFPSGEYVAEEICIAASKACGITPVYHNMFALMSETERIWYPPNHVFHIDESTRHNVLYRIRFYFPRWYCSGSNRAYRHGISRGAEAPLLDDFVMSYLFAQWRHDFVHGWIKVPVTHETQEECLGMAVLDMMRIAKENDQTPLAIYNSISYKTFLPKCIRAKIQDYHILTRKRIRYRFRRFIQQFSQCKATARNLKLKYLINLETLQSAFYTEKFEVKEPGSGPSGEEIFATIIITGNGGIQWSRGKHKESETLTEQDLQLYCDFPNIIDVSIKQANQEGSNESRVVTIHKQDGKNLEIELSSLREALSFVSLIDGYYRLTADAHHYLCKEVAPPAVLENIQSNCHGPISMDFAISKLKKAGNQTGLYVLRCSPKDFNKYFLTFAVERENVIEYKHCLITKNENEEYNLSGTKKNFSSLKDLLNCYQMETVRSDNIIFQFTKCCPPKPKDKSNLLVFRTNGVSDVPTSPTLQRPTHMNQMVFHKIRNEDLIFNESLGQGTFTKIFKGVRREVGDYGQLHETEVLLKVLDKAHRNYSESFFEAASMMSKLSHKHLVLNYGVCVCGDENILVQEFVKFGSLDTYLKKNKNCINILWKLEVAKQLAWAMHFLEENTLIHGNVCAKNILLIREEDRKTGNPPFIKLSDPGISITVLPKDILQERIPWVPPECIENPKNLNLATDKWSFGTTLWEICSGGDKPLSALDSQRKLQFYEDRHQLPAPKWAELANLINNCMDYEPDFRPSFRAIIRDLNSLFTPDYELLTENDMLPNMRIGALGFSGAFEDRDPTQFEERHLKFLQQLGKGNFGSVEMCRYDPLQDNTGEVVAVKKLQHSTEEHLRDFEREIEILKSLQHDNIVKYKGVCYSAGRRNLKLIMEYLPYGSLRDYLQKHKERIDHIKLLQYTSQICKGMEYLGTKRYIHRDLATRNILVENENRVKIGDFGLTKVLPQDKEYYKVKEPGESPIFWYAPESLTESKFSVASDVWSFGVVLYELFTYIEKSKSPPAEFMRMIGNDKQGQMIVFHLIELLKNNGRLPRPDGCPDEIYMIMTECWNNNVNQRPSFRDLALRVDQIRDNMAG

pIC50 [1]	pIC50 [2]	Compound
> 8.00	6.00 to 7.00	C[C@@H](O)c1nc2cnc3[nH]ccc3c2n1[C@H]1CCN(S(=O)(=O)CCC(F)(F)F)C1 [LXS102, (R)-1-(1-((S)-1-((3,3,3-Trifluoropropyl)sulfonyl)pyrrolidin-3-yl)imidazo[4,5-d]pyrrolo[2,3-b]pyridin-2-yl)ethanol]
7.00 to 8.00	6.00 to 7.00	N#Cc1ccc(-n2c(-c3cccc(O)c3)nc3cnc4[nH]ccc4c32)cc1 [LXS56, 4-(2-(3-Hydroxyphenyl)imidazo[4,5-d]pyrrolo[2,3-b]pyridin-1(6H)-yl)benzonitrile]
7.00 to 8.00	7.00 to 8.00	C[C@@H](O)c1nc2cnc3[nH]ccc3c2n1[C@@H]1CN(CCCCC#N)CC12CC2 [LXS72, 5-((S)-7-(2-((R)-1-Hydroxyethyl)imidazo[4,5-d]pyrrolo[2,3-b]pyridin-1(6H)-yl)-5-azaspiro[2,4]hept-5-yl)pentanonitrile]
> 8.00	6.00 to 7.00	C[C@@H](O)c1nc2cnc3[nH]ccc3c2n1[C@H]1CCN(CCCCC#N)C1 [LXS68, 5-((S)-3-(2-((R)-1-Hydroxyethyl)imidazo[4,5-d]pyrrolo[2,3-b]pyridin-1(6H)-yl)pyrrolidin-1-yl)pentanonitrile]
7.00 to 8.00	7.00 to 8.00	N#CCn1cc(-n2c(C(F)(F)F)nc3cnc4[nH]ccc4c32)cn1 [LXS78, 2-(4-(2-(Trifluoromethyl)imidazo[4,5-d]pyrrolo[2,3-b]pyridin-1(6H)-yl)-1H-pyrazol-1-yl)acetonitrile]
6.00 to 7.00	6.00 to 7.00	CCCS(=O)(=O)N1CCC(n2c(-c3cccnc3N)nc3cnc4[nH]ccc4c32)C1 (stereo not shown) [LXS47, 3-(1-(1-(propylsulfonyl)pyrrolidin-3-yl)-1,6-dihydroimidazo[4,5-d]pyrrolo[2,3-b]pyridin-2-yl)pyridin-2-amine]
> 8.00	6.00 to 7.00	C[C@@H](O)c1nc2cnc3[nH]ccc3c2n1[C@H]1CCN(CCCC#N)C1 [LXS65, 4-((S)-3-(2-((R)-1-Hydroxyethyl)imidazo[4,5-d]pyrrolo[2,3-b]pyridin-1(6H)-yl)pyrrolidin-1-yl)butanenitrile]
> 8.00	6.00 to 7.00	C[C@@H](O)c1nc2cnc3[nH]ccc3c2n1[C@H]1CCN(CCCC(F)(F)F)C1 [LXS71, (R)-1-(1-((S)-1-(4,4,4-Trifluorobutyl)pyrrolidin-3-yl)-1,6-dihydroimidazo[4,5-d]pyrrolo[2,3-b]pyridin-2-yl)ethanol]
7.00 to 8.00	6.00 to 7.00	C[C@@H](O)c1nc2cnc3[nH]ccc3c2n1[C@H]1C[C@@H](CO)N(CCCC(F)(F)F)C1 [LXS89, (R)-1-(1-((3S,5S)-5-(hydroxymethyl)-1-(4,4,4-trifluorobutyl)pyrrolidin-3-yl)-1,6-dihydroimidazo[4,5-d]pyrrolo[2,3-b]pyridin-2-yl)ethan-1-ol]
7.00 to 8.00	7.00 to 8.00	N#CCN1CCC(n2c(-c3cccc(O)c3)nc3cnc4[nH]ccc4c32)C1 (stereo not shown) [LXSS3, 2-(3-(2-(3-Hydroxyphenyl)imidazo[4,5-d]pyrrolo[2,3-b]pyridin-1(6H)-yl)pyrrolidin-1-yl)acetonitrile]
6.00 to 7.00	6.00 to 7.00	C[C@@H](O)c1nc2cnc3[nH]ccc3c2n1C1CCN(C(=O)OC(C)(C)C)C1 (stereo partly drawn) [LXS01, tert-butyl 3-(2-((R)-1-hydroxyethyl)imidazo[4,5-d]pyrrolo[2,3-b]pyridin-1(6H)-yl)pyrrolidine-1-carboxylate]
6.00 to 7.00	6.00 to 7.00	O=C(NCC(F)(F)F)N1CCC(n2c(-c3cccc(O)c3)nc3cnc4[nH]ccc4c32)C1 (stereo not shown) [LXS34, 3-(2-(3-Hydroxyphenyl)imidazo[4,5-d]pyrrolo[2,3-b]pyridin-1(6H)-yl)-N-(2,2,2-trifluoroethyl)pyrrolidine-1-carboxamide]
6.00 to 7.00	> 8.00	N#CCCn1cc(-n2c(C(F)(F)F)nc3cnc4[nH]ccc4c32)cn1 [LXS64, 3-(4-(2-(Trifluoromethyl)imidazo[4,5-d]pyrrolo[2,3-b]pyridin-1(6H)-yl)-1H-pyrazol-1-yl)propanenitrile]
6.00 to 7.00	> 8.00	Cc1ccc(-c2nc3cnc4[nH]ccc4c3n2-c2cnn(CCC#N)c2)o1 [LXS50, 3-(4-(2-(5-Methylfuran-2-yl)imidazo[4,5-d]pyrrolo[2,3-b]pyridin-1(6H)-yl)-1H-pyrazol-1-yl)propanenitrile]
7.00 to 8.00	6.00 to 7.00	C[C@@H](O)c1nc2cnc3[nH]ncc3c2n1[C@H]1CCN(CCCC(F)(F)F)C1 [LXS90, (R)-1-(1-((S)-1-(4,4,4-trifluorobutyl)pyrrolidin-3-yl)-1,6-dihydroimidazo[4,5-d]pyrazolo[3,4-b]pyridin-2-yl)ethan-1-ol]
7.00 to 8.00	7.00 to 8.00	N#C[C@H]1CC[C@H](n2c(-c3ccccc3F)nc3cnc4[nH]ccc4c32)CC1 (stereo in doubt) [LXS40, trans-4-(2-(2-Fluorophenyl)imidazo[4,5-d]pyrrolo[2,3-b]pyridin-1(6H)-yl)cyclohexanecarbonitrile]
6.00 to 7.00	> 8.00	CCS(=O)(=O)N1CC(CC#N)(n2cc(-n3c(-c4cccs4)nc4cnc5[nH]ccc5c43)cn2)C1 [LXS63, 2-(1-(Ethylsulfonyl)-3-(4-(2-(thiophen-2-yl)imidazo[4,5-d]pyrrolo[2,3-b]pyridin-1(6H)-yl)-1H-pyrazol-1-yl)azetidin-3-yl)acetonitrile]
6.00 to 7.00	7.00 to 8.00	CCS(=O)(=O)N1CC(CC#N)(n2cc(-n3c(-c4ccc(CO)o4)nc4cnc5[nH]ccc5c43)cn2)C1 [LXS13, 2-(1-(ethylsulfonyl)-3-(4-(2-(5-(hydroxymethyl)furan-2-yl)imidazo[4,5-d]pyrrolo[2,3-b]pyridin-1(6H)-yl)-1H-pyrazol-1-yl)azetidin-3-yl)acetonitrile]
7.00 to 8.00	7.00 to 8.00	Oc1cccc(-c2nc3cnc4[nH]ccc4c3n2[C@H]2CCN(CCCC(F)(F)F)C2)c1 [LXS99, (S)-3-(1-(1-(4,4,4-trifluorobutyl)pyrrolidin-3-yl)-1,6-dihydroimidazo[4,5-d]pyrrolo[2,3-b]pyridin-2-yl)phenol]
7.00 to 8.00	7.00 to 8.00	Cc1ccc(-c2nc3cnc4[nH]ccc4c3n2-c2cnn(CCCC#N)c2)o1 [LXS104, 4-(4-(2-(5-methylfuran-2-yl)imidazo[4,5-d]pyrrolo[2,3-b]pyridin-1(6H)-yl)-1H-pyrazol-1-yl)butanenitrile]
6.00 to 7.00	6.00 to 7.00	N#C[C@H]1CC[C@H](n2c(-c3ccc(C(F)(F)F)cc3)nc3cnc4[nH]ccc4c32)CC1 (stereo in doubt) [LXS37, trans-4-(2-(4-(Trifluoromethyl)phenyl)imidazo[4,5-d]pyrrolo[2,3-b]pyridin-1(6H)-yl)cyclohexanecarbonitrile]
7.00 to 8.00	7.00 to 8.00	C[C@@H](O)c1nc2cnc3[nH]ccc3c2n1[C@@H]1CN(CCCC(F)(F)F)CC12CC2 [LXS70, (R)-1-(1-((S)-5-(4,4,4-Trifluorobutyl)-5-azaspiro[2,4]hept-7-yl)-1,6-dihydroimidazo[4,5-d]pyrrolo[2,3-b]pyridin-2-yl)ethanol]
> 8.00	6.00 to 7.00	C[C@@H](O)c1nc2cnc3[nH]ccc3c2n1[C@H]1CCN(C(F)(F)C(F)(F)C(F)(F)C(F)(F)F)C1 [LXS101, (R)-1-(1-((S)-1-(Perfluoro-butyl)pyrrolidin-3-yl)-1,6-dihydroimidazo[4,5-d]pyrrolo[2,3-b]pyridin-2-yl)ethanol]
